# Source: patent US6207644A, “Peptide analogues containing a 7-membered lactam ring” (Zeneca Limited, priority 1996, dated 2001)
# pIC50: −log10 of the molar value.
# Legend:
# [1] = target: T1, HLA-DR4Dw4 (Homo sapiens, UniProt P01903+P01911, A100K/A169T/F76Y/I96L/K127E/L162R/M171V/N62H/P40V/Q125Y/R42H/S133A/S149N/S66Y/V115G/V209L/W38E); assay: Test A: purified HLA-DR peptide in vitro binding assay (or its variant)
# T1 construct: made in house; host or cells: double-recombinant baculovirus in Sf21 insect cells (Test A), or the human JAH cell line (variant to Test A)
# Method: Purified HLA-DR peptide in vitro binding assay. […]. At the end of the incubation period 100 μl of the incubate is transferred to Enzyme Linked ImmunoSorbant Assay (ELISA) plates (Nunc) previously coated with an anti-MHC antibody (L243-American Type Culture Collection (ATCC) HB55 as described in Lampson and Levy (1980) J. Immunol. 125, 293-299) at a concentration of 10 μg/ml for 1 hour at room temperature and blocked thereafter for 1 hour with 1% bovine serum albumin (BSA) in PBS and 0.05% Tween 20. […] The reaction is stopped by adding 2M sulphuric acid (10 μl per well) and the absorbance read at 450 nm to quantify the amount of peptide bound. The inhibitory activity of peptides is obtained by plotting absorbance against concentration. […]
# To create the double-recombinant baculovirus, a cDNA encoding the β chain is cloned into the transfer vector pAcUW1 [Weyer, U; Knight, S & Possee, R D (1990) J. Gen. […] Double-recombinant viruses are detected by spotting insecT-cells, infected with randomly picked viruses from the transfection,onto membranes and reacting them with a monoclonal antibody e.g. L243 which specifically recognises the HLA-DR heterodimer. Binding of the antibody to Sf21 insecT-cells is detected using standard flow cytometry techniques, readily available in the literature. […]
# [2] = system: HLA-DR1; assay: Variant to Test A: peptide selectivity binding assay, HLA-DR1; design: species or system human
# Method: (§1) As a varient to test A, the ability of a peptide of the invention to bind to one or more HLA-DR molecules was assessed as follows:
# (§2) The method used was a modification of that described by Gorga et al, 1987, J.Biol.Chem. 262, 16087-16094. Human HLA-DR antigens were purified from various cell lines by immunoaffinity chromatography. […] Protein content was determined by a Biorad protein assay and purity by SDS-PAGE electrophoresis.
# (§3) 200 nM biotin-FHA307-320 in phosphate buffered saline (PBS) was incubated with either purified HLA-DR1, DR2, DR4Dw4, DR4Dw13 or DR4Dw14 (2-20 μg/ml) in V-well microtitre plates (Nunc) with or without inhibitor peptides in assay buffer (PBS, 0.01% NP40 (Sigma.)) For DR3 inhibition, 400 nM Biotin-Ahx-(D)Ala-Ala-Ala-Che-Ile-Ala-Ala-Ala-Thr-Leu-Lys-Ala-Ala-(D)Ala-OH (SEQ ID NO:25) was incubated with purified DR3 (20 μg/ml), and incubated as above. After 48 hours, the incubates were treated, and absorbance readings taken as described in Test A. The inhibitory activity of peptides, expressed as IC50 values, was calculating using Microcal Origin software on a PC.
# [3] = system: HLA-DR2; assay: Variant to Test A: peptide selectivity binding assay, HLA-DR2; design: species or system human
# Method: as §1, §2, §3
# [4] = target: HLA-DR3; assay: Variant to Test A: peptide selectivity binding assay, HLA-DR3; design: species or system human; settings: no significant binding
# Method: as §1, §2, §3
# [5] = system: BALB/C mice; assay: Test C: peptide stimulated DTH (delayed type hypersensitivity) in BALB/C mice; assay type: in vivo; settings: osmotic mini-pump
# Method: Peptide stimulated DTH (delayed type hypersensitivity) in BALB/C mice. […] Balb/c female mice (18-20 g), 5 per group, were immunised sub-cutaneously on the flank with 0.1 ml of an emulsion of ovalbumin (Sigma) (2 mg/ml in saline) mixed 1:1 (v/v) with complete Freunds adjurant (Sigma). Seven days later footpad thickness was detemined using a dual caliper micrometer followed by a challenge in one hind footpad with a 30 μl sub-plantar injection of 1% heat-aggregated ovalbumin protein in saline. Twenty-four hours after antigen challenge, footpads were measured and the DTH response calculated as the percentage increase in footpad thickness in the injected footpad compared to contralateral control. Inhibitors were adminstered by 3-day osmotic mini-pumps (Alzet) implanted 24 hours prior to antigen challenge at doses ranging from 10 mg/kg/day to 0.1 μg/kg/day. The degree of inhibition was calculated by substracting the value for swelling of inhibitor treated footpads from that of the vehicle dosed controls, dividing by the control value and multiplying by 100%.
# [6] = Aqueous stability of peptide in McIlvaine's buffer; assay type: physicochemical
# Method: A typical procedure for measuring the stability of a peptide compound of the present invention is as follows, in which, to minimize microbial contamination and degradation, all equipment that is used to prepare peptide solutions is sterilized in an autoclave and all material transfers carried out in a Class II laminar flow cabinet. Approximately 20 ml of McIlvaine's citric acid-phosphate buffer solution at pH 3 or 7.6 containing 0.02% sodium azide is filtered into a 50 ml bottle using a sterile […] filter unit and a 20 ml syringe. Approximately 1.2 mg of peptide is accurately weighed in a capped vial. Using a sterile pipette tip, sufficient buffer solution is added to the peptide in the vial to give a peptide concentration of 0.1 mg/ml. The vial is capped and shaken to dissolve the peptide. Using a sterile pipette tip, aliquots of approximately 1 ml of the peptide solution are transferred to 10 HPLC vials, which are then capped. 5 vials are stored at -18 and 37° C. The area of the peptide peak for the solution is determined by HPLC using appropriate standards initially and after storage at -18 and 37° C. for 1, 2, 3 and 4 weeks, using a fresh vial at each time point with duplicate sample injections. The percentage of peptide remaining after storage at 37° C. at each time point is determined from the ratio of the area of the peptide peak at each time point to the initial area. […]
# [7] = Loss of peptide due to degradation on extrusion of polymer depot formulation; assay type: physicochemical; settings: in the form of a polymer depot formulation
# Method: Typical procedures for measuring the level of degradation of a peptide compound of the present invention are as follows:
# About 20 mg of peptide is accurately weighed and sufficient polymer (50/50% molar poly(D,L-lactic acid/glycolic acid) copolymer of approximate weight average molecular weight 20 kD and approximate polydispersity of 1.7 as determined by size exclusion chromatography relative to polystyrene standards) added to produce an approximate 20% w/w mixture. This is dissolved in anhydride-free glacial acetic acid to produce an approximate 10% w/v solution. The solution is freeze dried and the resulting freeze dried product is stored under vacuum prior to use.
# About 100 mg of freeze dried material is loaded into the barrel of a small laboratory extruder and the plunger pushed down to consolidate the sample. […]
# Each standard is filtered through a 5 μm Millex PTFE filter and an aliquot of filtrate, together with aliquots of the solutions A, analysed by HPLC using duplicate sample injections. The peptide content of the extruded polymer depot formulation of peptide is calculated from the concentration of peptide in solutions A, which is determined by comparing the area of the peptide peak in solutions A with the area of the peptide peak from the standard solutions.
# [8] = Degradation of peptide on in vitro release from an extruded polymer depot; assay type: physicochemical; settings: in the form of a polymer depot formulation
# Method: A solution of McIlvaine's citric acid-phosphate buffer solution at pH 7.6 containing 0.02% sodium azide, is filtered through a 0.22μ filter and stored at 4° C. Approximately 10 mg of extruded polymer depot containing peptide is placed in two small vials and 2 ml of the buffer solution added. The vials are then capped and stored in a water bath at 37° C. for a month. At suitable time points over a month, three 0.6 ml aliquots of release medium are removed from each vial and either analysed by HPLC or stored frozen in an HPLC vial at -18° C. prior to analysis by HPLC. 1.8 ml of the buffer solution is added to each vial containing the depot to replace the release medium that has been removed at each time point.
# The average amount of intact peptide in the release medium at each time point is determined by HPLC using duplicate sample injections by comparing the area of the peptide peak in the release media with the area of the peptide peak from standard buffer solutions of peptide at known concentrations. The approximate average amount of peptide degradation products in the release media at each time point is determined by HPLC by comparing the area of additional new peaks in the release media with the area of the peptide peak from standard buffer solutions of peptide at known concentrations and assuming the extinction coefficient has not changed. […]
smiles,measurement,setting,value
"C[C@H](NC(=O)CN1CCCC[C@H](NC(=O)[C@H](C)NC(=O)[C@H](C)NC(=O)[C@H](CCCNC(=N)N)NC(=O)CCCCc2ccccc2)C1=O)C(=O)N[C@@H](C)C(=O)N[C@@H](C)C(=O)Nc1ccc(CC(N)=O)cc1 [Example 1, Phv-Arg-Ala-Ala-IIb-Ala-Ala-Ala-Papa-NH2]",concentration showing significant binding to HLA-DR4Dw4,[1],≤ 0.1 µM
same,binding to HLA-DR1,[2],significant binding
same,binding to HLA-DR2,[3],significant binding
same,pIC50,[4],< 4.00
same,dose at which active in Test C,[5],< 0.1 mg/kg/day
same,aqueous stability,[6]; pH3,good aqueous stability
same,aqueous stability,[6]; pH7.6,good aqueous stability
same,loss due to degradation on extrusion,[7],minimal loss due to degradation on extrusion
same,degradation on release from depot formulation,[8],minimal degradation on release
